Measurements reported in article PMC7724566, “Prospects for Clinical Development of Stat5 Inhibitor IST5-002: High Transcriptomic Specificity in Prostate Cancer and Low Toxicity In Vivo” (Cancers, 2020).

Legend:
Assay in all cases: Kinase Seeker luminescence cell-free assay
Assay type in all cases: binding
ABL2 = biological target: T1, ABL2 (Homo sapiens, UniProt P42684); settings: percent activity of kinase after exposure to IST5 1 µM
T1 construct: purchased Reaction Biology (JAK1/2/3, TYK2); Luceome Biotechnologies KinaseSeeker (others)
Procedure: (§1) For Jak1, Jak2, Jak3 and Tyk2, a radiometric filtration binding assay was conducted by Reaction Biologicals (Malvern, PA, USA) (Table 1). This radiometric assay is a cell-free assay which is based on conventional filter-binding assays, directly measuring kinase catalytic activity toward a specific substrate. For evaluation of the activity of the other kinases, the Kinase Seeker Technology was utilized (Luceome Biotechnologies, Tucson, AZ, USA), which is a luminescence-based cell-free assay. In this assay, the reassembly of luciferase fragments is mediated by the interaction of a kinase with an active site-dependent probe. The competitive displacement of the probe by an inhibitor is measured by a change in luminescence signal. Percent activity of each kinase after exposure to IST5 (1 µM) is presented.

AKT2 = biological target: T2, AKT2 (Homo sapiens, UniProt P31751); settings: percent activity of kinase after exposure to IST5 1 µM
T2 construct: purchased Reaction Biology (JAK1/2/3, TYK2); Luceome Biotechnologies KinaseSeeker (others)
Procedure: as §1

AKT3 = biological target: T3, AKT3 (Homo sapiens, UniProt Q9Y243); settings: percent activity of kinase after exposure to IST5 1 µM
T3 construct: purchased Reaction Biology (JAK1/2/3, TYK2); Luceome Biotechnologies KinaseSeeker (others)
Procedure: as §1

AURKA = biological target: T4, AURKA (Homo sapiens, UniProt O14965); settings: percent activity of kinase after exposure to IST5 1 µM
T4 construct: purchased Reaction Biology (JAK1/2/3, TYK2); Luceome Biotechnologies KinaseSeeker (others)
Procedure: as §1

AURKB = biological target: T5, AURKB (Homo sapiens, UniProt Q96GD4); settings: percent activity of kinase after exposure to IST5 1 µM
T5 construct: purchased Reaction Biology (JAK1/2/3, TYK2); Luceome Biotechnologies KinaseSeeker (others)
Procedure: as §1

BLK = biological target: T6, BLK (Homo sapiens, UniProt P51451); settings: percent activity of kinase after exposure to IST5 1 µM
T6 construct: purchased Reaction Biology (JAK1/2/3, TYK2); Luceome Biotechnologies KinaseSeeker (others)
Procedure: as §1

CAMKK1 = biological target: T7, CAMKK1 (Homo sapiens, UniProt Q8N5S9); settings: percent activity of kinase after exposure to IST5 1 µM
T7 construct: purchased Reaction Biology (JAK1/2/3, TYK2); Luceome Biotechnologies KinaseSeeker (others)
Procedure: as §1

CAMKK2 = biological target: T8, CAMKK2 (Homo sapiens, UniProt Q96RR4); settings: percent activity of kinase after exposure to IST5 1 µM
T8 construct: purchased Reaction Biology (JAK1/2/3, TYK2); Luceome Biotechnologies KinaseSeeker (others)
Procedure: as §1

EPHA1 = biological target: T9, EPHA1 (Homo sapiens, UniProt P21709); settings: percent activity of kinase after exposure to IST5 1 µM
T9 construct: purchased Reaction Biology (JAK1/2/3, TYK2); Luceome Biotechnologies KinaseSeeker (others)
Procedure: as §1

FAK = biological target: T10, FAK (Homo sapiens, UniProt Q05397); settings: percent activity of kinase after exposure to IST5 1 µM
T10 construct: purchased Reaction Biology (JAK1/2/3, TYK2); Luceome Biotechnologies KinaseSeeker (others)
Procedure: as §1

FGFR2 = biological target: T11, FGFR2 (Homo sapiens, UniProt P21802); settings: percent activity of kinase after exposure to IST5 1 µM
T11 construct: purchased Reaction Biology (JAK1/2/3, TYK2); Luceome Biotechnologies KinaseSeeker (others)
Procedure: as §1

FLT1 = biological target: T12, FLT1 (Homo sapiens, UniProt P17948); settings: percent activity of kinase after exposure to IST5 1 µM
T12 construct: purchased Reaction Biology (JAK1/2/3, TYK2); Luceome Biotechnologies KinaseSeeker (others)
Procedure: as §1

FLT2/3 = settings: percent activity of kinase after exposure to IST5 1 µM
Procedure: as §1

FYN = biological target: T13, FYN (Homo sapiens, UniProt P06241); settings: percent activity of kinase after exposure to IST5 1 µM
T13 construct: purchased Reaction Biology (JAK1/2/3, TYK2); Luceome Biotechnologies KinaseSeeker (others)
Procedure: as §1

IGF1R = biological target: T14, IGF1R (Homo sapiens, UniProt P08069); settings: percent activity of kinase after exposure to IST5 1 µM
T14 construct: purchased Reaction Biology (JAK1/2/3, TYK2); Luceome Biotechnologies KinaseSeeker (others)
Procedure: as §1

IKKe = biological target: T15, IKKe (Homo sapiens, UniProt Q14164); settings: percent activity of kinase after exposure to IST5 1 µM
T15 construct: purchased Reaction Biology (JAK1/2/3, TYK2); Luceome Biotechnologies KinaseSeeker (others)
Procedure: as §1

INSR = biological target: T16, INSR (Homo sapiens, UniProt P06213); settings: percent activity of kinase after exposure to IST5 1 µM
T16 construct: purchased Reaction Biology (JAK1/2/3, TYK2); Luceome Biotechnologies KinaseSeeker (others)
Procedure: as §1

ITK = biological target: T17, ITK (Homo sapiens, UniProt Q08881); settings: percent activity of kinase after exposure to IST5 1 µM
T17 construct: purchased Reaction Biology (JAK1/2/3, TYK2); Luceome Biotechnologies KinaseSeeker (others)
Procedure: as §1

LCK = biological target: T18, LCK (Homo sapiens, UniProt P06239); settings: percent activity of kinase after exposure to IST5 1 µM
T18 construct: purchased Reaction Biology (JAK1/2/3, TYK2); Luceome Biotechnologies KinaseSeeker (others)
T18 sequence (P06239 whole entry): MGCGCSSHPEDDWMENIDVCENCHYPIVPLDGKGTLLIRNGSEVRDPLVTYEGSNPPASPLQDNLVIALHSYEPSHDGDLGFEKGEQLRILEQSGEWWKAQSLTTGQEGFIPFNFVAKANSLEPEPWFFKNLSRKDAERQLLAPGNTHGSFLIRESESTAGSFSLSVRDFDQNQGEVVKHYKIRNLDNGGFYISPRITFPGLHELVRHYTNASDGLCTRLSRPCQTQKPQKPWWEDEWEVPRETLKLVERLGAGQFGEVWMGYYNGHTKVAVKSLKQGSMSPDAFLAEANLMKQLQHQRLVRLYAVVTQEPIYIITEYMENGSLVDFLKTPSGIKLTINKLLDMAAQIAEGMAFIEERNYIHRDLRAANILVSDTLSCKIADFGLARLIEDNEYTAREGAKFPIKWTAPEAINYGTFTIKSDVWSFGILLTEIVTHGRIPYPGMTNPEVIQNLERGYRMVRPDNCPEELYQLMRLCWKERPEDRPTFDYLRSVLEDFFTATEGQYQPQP
Procedure: as §1

LYN = biological target: T19, LYN (Homo sapiens, UniProt P07948); settings: percent activity of kinase after exposure to IST5 1 µM
T19 construct: purchased Reaction Biology (JAK1/2/3, TYK2); Luceome Biotechnologies KinaseSeeker (others)
Procedure: as §1

MLK1 = biological target: T20, MLK1 (Homo sapiens, UniProt P80192); settings: percent activity of kinase after exposure to IST5 1 µM
T20 construct: purchased Reaction Biology (JAK1/2/3, TYK2); Luceome Biotechnologies KinaseSeeker (others)
Procedure: as §1

MLK3 = biological target: T21, MLK3 (Homo sapiens, UniProt Q16584); settings: percent activity of kinase after exposure to IST5 1 µM
T21 construct: purchased Reaction Biology (JAK1/2/3, TYK2); Luceome Biotechnologies KinaseSeeker (others)
T21 sequence (Q16584 whole entry): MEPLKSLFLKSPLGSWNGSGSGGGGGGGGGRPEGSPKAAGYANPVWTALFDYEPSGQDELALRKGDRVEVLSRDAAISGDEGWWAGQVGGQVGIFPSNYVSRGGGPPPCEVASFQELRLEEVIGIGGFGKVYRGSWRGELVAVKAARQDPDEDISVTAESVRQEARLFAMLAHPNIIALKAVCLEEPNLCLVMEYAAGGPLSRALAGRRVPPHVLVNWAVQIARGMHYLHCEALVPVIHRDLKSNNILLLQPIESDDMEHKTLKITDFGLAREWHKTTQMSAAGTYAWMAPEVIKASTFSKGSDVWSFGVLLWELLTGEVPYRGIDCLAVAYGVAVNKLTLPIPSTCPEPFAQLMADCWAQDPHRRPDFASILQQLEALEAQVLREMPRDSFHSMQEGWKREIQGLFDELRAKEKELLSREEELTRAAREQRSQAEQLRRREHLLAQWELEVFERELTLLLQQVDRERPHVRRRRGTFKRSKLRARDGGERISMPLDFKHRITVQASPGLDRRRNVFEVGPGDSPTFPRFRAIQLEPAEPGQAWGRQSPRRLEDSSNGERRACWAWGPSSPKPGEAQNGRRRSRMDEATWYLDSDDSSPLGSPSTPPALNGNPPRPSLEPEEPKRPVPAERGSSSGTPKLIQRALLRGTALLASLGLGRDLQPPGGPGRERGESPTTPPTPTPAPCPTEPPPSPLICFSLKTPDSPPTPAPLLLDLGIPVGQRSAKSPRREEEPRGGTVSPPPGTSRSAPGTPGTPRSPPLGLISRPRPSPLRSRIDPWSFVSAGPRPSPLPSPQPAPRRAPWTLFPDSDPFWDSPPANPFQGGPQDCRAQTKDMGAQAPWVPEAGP
Procedure: as §1

MSK2 = biological target: T22, MSK2 (Homo sapiens, UniProt O75676); settings: percent activity of kinase after exposure to IST5 1 µM
T22 construct: purchased Reaction Biology (JAK1/2/3, TYK2); Luceome Biotechnologies KinaseSeeker (others)
Procedure: as §1

MUSK = biological target: T23, MUSK (Homo sapiens, UniProt O15146); settings: percent activity of kinase after exposure to IST5 1 µM
T23 construct: purchased Reaction Biology (JAK1/2/3, TYK2); Luceome Biotechnologies KinaseSeeker (others)
Procedure: as §1

PAK1 = biological target: T24, PAK1 (Homo sapiens, UniProt Q13153); settings: percent activity of kinase after exposure to IST5 1 µM
T24 construct: purchased Reaction Biology (JAK1/2/3, TYK2); Luceome Biotechnologies KinaseSeeker (others)
Procedure: as §1

PDGFRB = biological target: T25, PDGFRB (Homo sapiens, UniProt P09619); settings: percent activity of kinase after exposure to IST5 1 µM
T25 construct: purchased Reaction Biology (JAK1/2/3, TYK2); Luceome Biotechnologies KinaseSeeker (others)
Procedure: as §1

PIM1 = biological target: T26, PIM1 (Homo sapiens, UniProt P11309); settings: percent activity of kinase after exposure to IST5 1 µM
T26 construct: purchased Reaction Biology (JAK1/2/3, TYK2); Luceome Biotechnologies KinaseSeeker (others)
Procedure: as §1

PIM2 = biological target: T27, PIM2 (Homo sapiens, UniProt Q9P1W9); settings: percent activity of kinase after exposure to IST5 1 µM
T27 construct: purchased Reaction Biology (JAK1/2/3, TYK2); Luceome Biotechnologies KinaseSeeker (others)
Procedure: as §1

PLK4 = biological target: T28, PLK4 (Homo sapiens, UniProt O00444); settings: percent activity of kinase after exposure to IST5 1 µM
T28 construct: purchased Reaction Biology (JAK1/2/3, TYK2); Luceome Biotechnologies KinaseSeeker (others)
Procedure: as §1

PYK1 = settings: percent activity of kinase after exposure to IST5 1 µM
Procedure: as §1

SLK = biological target: T29, SLK (Homo sapiens, UniProt Q9H2G2); settings: percent activity of kinase after exposure to IST5 1 µM
T29 construct: purchased Reaction Biology (JAK1/2/3, TYK2); Luceome Biotechnologies KinaseSeeker (others)
Procedure: as §1

SRC = biological target: T30, SRC (Homo sapiens, UniProt P12931); settings: percent activity of kinase after exposure to IST5 1 µM
T30 construct: purchased Reaction Biology (JAK1/2/3, TYK2); Luceome Biotechnologies KinaseSeeker (others)
Procedure: as §1

SYK = biological target: T31, SYK (Homo sapiens, UniProt P43405); settings: percent activity of kinase after exposure to IST5 1 µM
T31 construct: purchased Reaction Biology (JAK1/2/3, TYK2); Luceome Biotechnologies KinaseSeeker (others)
Procedure: as §1

TBK1 = biological target: T32, TBK1 (Homo sapiens, UniProt Q9UHD2); settings: percent activity of kinase after exposure to IST5 1 µM
T32 construct: purchased Reaction Biology (JAK1/2/3, TYK2); Luceome Biotechnologies KinaseSeeker (others)
Procedure: as §1

TIE1 = biological target: T33, TIE1 (Homo sapiens, UniProt P35590); settings: percent activity of kinase after exposure to IST5 1 µM
T33 construct: purchased Reaction Biology (JAK1/2/3, TYK2); Luceome Biotechnologies KinaseSeeker (others)
Procedure: as §1

TNK2 = biological target: T34, TNK2 (Homo sapiens, UniProt Q07912); settings: percent activity of kinase after exposure to IST5 1 µM
T34 construct: purchased Reaction Biology (JAK1/2/3, TYK2); Luceome Biotechnologies KinaseSeeker (others)
Procedure: as §1

TRKB = biological target: T35, TRKB (Homo sapiens, UniProt Q16620)
T35 construct: purchased Reaction Biology (JAK1/2/3, TYK2); Luceome Biotechnologies KinaseSeeker (others)
T35 sequence (Q16620 32-822): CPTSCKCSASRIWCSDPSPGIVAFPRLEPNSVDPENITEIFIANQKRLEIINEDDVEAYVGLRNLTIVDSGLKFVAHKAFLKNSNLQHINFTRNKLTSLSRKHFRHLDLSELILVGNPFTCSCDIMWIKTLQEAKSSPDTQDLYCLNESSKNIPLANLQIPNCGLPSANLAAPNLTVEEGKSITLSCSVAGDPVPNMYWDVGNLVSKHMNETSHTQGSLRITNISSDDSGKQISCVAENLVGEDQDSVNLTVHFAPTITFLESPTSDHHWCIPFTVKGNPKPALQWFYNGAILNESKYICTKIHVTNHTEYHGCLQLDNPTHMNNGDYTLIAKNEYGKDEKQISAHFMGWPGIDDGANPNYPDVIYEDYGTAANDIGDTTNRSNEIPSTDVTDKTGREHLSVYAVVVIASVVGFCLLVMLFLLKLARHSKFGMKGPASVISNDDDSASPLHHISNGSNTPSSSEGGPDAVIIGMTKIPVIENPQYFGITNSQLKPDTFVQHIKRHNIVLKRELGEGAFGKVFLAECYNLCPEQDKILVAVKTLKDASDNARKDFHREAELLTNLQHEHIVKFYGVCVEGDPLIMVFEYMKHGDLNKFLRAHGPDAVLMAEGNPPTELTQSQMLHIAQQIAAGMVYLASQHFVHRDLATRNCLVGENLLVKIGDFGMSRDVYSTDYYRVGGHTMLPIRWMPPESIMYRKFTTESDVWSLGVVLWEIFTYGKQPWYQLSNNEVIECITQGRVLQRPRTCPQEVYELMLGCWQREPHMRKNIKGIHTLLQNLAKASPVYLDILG
Procedure: as §1

TRKC = biological target: T36, TRKC (Homo sapiens, UniProt Q16288); settings: percent activity of kinase after exposure to IST5 1 µM
T36 construct: purchased Reaction Biology (JAK1/2/3, TYK2); Luceome Biotechnologies KinaseSeeker (others)
T36 sequence (Q16288 32-839): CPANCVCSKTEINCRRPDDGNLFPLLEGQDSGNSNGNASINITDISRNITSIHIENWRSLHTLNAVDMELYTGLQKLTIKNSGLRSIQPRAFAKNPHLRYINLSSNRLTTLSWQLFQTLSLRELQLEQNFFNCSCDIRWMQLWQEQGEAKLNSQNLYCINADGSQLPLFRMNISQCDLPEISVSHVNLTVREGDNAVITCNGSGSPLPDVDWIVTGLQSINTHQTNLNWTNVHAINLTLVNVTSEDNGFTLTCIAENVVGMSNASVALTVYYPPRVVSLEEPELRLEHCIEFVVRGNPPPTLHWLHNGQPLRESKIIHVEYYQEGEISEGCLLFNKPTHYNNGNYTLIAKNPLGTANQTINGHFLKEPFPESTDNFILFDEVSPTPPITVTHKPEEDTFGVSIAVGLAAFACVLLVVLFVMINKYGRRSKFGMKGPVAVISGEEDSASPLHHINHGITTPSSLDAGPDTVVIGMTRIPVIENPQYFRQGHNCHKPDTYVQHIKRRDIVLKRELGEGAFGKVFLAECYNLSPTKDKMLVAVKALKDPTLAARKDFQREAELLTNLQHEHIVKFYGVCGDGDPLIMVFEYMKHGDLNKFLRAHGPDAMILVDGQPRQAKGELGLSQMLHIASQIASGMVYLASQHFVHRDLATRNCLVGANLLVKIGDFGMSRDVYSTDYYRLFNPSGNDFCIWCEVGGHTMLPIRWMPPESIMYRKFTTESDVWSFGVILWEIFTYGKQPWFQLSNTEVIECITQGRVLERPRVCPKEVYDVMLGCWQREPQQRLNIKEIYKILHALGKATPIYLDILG
Procedure: as §1

VEGFR2 = biological target: T37, VEGFR2 (Homo sapiens, UniProt P35968); settings: percent activity of kinase after exposure to IST5 1 µM
T37 construct: purchased Reaction Biology (JAK1/2/3, TYK2); Luceome Biotechnologies KinaseSeeker (others)
T37 sequence (P35968 20-1356): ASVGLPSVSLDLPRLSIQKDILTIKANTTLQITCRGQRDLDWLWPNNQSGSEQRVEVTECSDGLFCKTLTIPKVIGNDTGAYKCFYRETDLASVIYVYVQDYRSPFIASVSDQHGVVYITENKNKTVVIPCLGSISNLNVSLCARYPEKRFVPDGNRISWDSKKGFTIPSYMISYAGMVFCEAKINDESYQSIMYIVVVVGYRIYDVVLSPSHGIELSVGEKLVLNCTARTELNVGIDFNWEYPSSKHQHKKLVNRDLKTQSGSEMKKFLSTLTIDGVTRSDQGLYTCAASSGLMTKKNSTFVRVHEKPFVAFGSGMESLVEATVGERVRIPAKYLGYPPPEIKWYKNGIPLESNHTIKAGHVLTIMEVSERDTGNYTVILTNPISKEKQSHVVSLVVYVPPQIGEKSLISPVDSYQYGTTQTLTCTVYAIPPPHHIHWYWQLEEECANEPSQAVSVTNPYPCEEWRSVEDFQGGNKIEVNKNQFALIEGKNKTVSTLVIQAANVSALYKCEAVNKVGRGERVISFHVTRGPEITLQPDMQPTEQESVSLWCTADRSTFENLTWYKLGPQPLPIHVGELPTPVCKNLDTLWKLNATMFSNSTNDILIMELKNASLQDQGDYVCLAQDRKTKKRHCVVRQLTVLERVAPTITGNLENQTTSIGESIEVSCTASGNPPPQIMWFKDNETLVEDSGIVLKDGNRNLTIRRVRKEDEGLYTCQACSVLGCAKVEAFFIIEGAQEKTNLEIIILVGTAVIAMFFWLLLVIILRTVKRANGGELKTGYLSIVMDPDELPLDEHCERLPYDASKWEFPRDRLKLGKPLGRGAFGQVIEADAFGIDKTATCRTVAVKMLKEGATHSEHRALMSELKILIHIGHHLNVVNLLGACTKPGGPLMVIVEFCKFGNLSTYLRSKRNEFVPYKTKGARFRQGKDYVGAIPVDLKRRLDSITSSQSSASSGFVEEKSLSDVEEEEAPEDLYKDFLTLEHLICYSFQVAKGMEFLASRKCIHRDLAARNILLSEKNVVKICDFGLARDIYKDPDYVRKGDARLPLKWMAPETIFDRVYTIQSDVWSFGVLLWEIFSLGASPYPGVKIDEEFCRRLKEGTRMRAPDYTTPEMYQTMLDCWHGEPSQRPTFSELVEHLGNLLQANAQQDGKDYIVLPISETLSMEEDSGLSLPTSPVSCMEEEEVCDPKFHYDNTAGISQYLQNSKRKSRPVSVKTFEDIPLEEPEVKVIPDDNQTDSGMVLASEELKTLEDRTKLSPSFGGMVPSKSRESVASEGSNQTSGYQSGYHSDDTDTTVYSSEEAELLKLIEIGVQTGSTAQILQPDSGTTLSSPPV
Procedure: as §1

YES1 = biological target: T38, YES1 (Homo sapiens, UniProt P07947); settings: percent activity of kinase after exposure to IST5 1 µM
T38 construct: purchased Reaction Biology (JAK1/2/3, TYK2); Luceome Biotechnologies KinaseSeeker (others)
T38 sequence (P07947 whole entry): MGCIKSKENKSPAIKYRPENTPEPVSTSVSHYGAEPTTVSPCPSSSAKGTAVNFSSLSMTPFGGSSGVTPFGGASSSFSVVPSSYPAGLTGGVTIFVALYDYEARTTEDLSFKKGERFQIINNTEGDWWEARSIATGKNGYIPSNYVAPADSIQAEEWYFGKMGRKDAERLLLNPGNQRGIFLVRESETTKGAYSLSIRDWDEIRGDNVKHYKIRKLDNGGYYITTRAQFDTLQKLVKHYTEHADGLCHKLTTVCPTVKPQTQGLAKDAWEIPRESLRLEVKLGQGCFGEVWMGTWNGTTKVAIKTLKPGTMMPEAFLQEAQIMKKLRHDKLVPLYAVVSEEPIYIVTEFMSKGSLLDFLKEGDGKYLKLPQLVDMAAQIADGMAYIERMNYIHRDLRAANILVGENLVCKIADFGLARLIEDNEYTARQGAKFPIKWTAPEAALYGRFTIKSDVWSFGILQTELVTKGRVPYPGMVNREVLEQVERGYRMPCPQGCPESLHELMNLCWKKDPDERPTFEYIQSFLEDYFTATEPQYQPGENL
Procedure: as §1

p38g = biological target: T39, p38g (Homo sapiens, UniProt P53778); settings: percent activity of kinase after exposure to IST5 1 µM
T39 construct: purchased Reaction Biology (JAK1/2/3, TYK2); Luceome Biotechnologies KinaseSeeker (others)
Procedure: as §1

`O=P(O)(O)OCC1OC(n2cnc3c(NCc4ccccc4)ncnc32)C(O)C1O` (stereo not drawn) [IST5] gave an Activity (ABL2) of 88.6%, an Activity (AKT2) of 94.3% and an Activity (AKT3) of 95.8%. It also gave an Activity (AURKA) of 85.3%, an Activity (AURKB) of 96.0% and an Activity (BLK) of 100.0%. The Activity (CAMKK1) was 94.2%, the Activity (CAMKK2) was 100.0% and the Activity (EPHA1) was 94.0%. The Activity (FAK) was 99.0%, the Activity (FGFR2) was 85.7% and the Activity (FLT1) was 88.4%. For the same compound, the Activity (FLT2/3) was 93.6%, the Activity (FYN) was 95.8% and the Activity (IGF1R) was 100.0%. For the same compound, the Activity (IKKe) was 84.8%, the Activity (INSR) was 91.0% and the Activity (ITK) was 100.0%. It also gave an Activity (LCK) of 88.9%, an Activity (LYN) of 90.4% and an Activity (MLK1) of 100.0%. For the same compound, the Activity (MLK3) was 93.5%, the Activity (MSK2) was 90.0% and the Activity (MUSK) was 100.0%. It also gave an Activity (PAK1) of 98.8%, an Activity (PDGFRB) of 78.4% and an Activity (PIM1) of 93.9%. For the same compound, the Activity (PIM2) was 91.8%, the Activity (PLK4) was 85.8% and the Activity (PYK1) was 93.4%. For the same compound, the Activity (SLK) was 92.6%, the Activity (SRC) was 92.1% and the Activity (SYK) was 92.1%. For the same compound, the Activity (TBK1) was 92.8%, the Activity (TIE1) was 100.0% and the Activity (TNK2) was 98.3%. For the same compound, the Activity (TRKB; TRKB, percent activity of kinase after exposure to IST5 1 µM) was 89.4%, the “inhibitory activity on TrkB” value (TRKB; Table 1) was “no inhibitory activity” and the Activity (TRKC) was 93.4%. The Activity (VEGFR2) was 89.1%, the Activity (YES1) was 100.0% and the Activity (p38g) was 100.0%.
